According to article PMC10406827, “Targeted dosing for susceptible heteroresistant subpopulations may improve rational dosage regimen prediction for colistin in broiler chickens” (Scientific Reports, 2023):
Read-outs that look alike come from different tables or passages of the source. Marks after values point to notes of the source that are not given here. Where a SMILES comes first, the peptide text is derived from it. Bridges are numbered along the chain shown (N, C = ends). [ ]: non-standard residue; d: D form. The star is where a group is joined. X1 = CC[C@H](C)CCCCC(=O)*; Dab = NCC[C@H](N)C(=O)O

Assays:
[1] = test system: E. coli 120h_B3_5; mcr-1; conditions: cited from earlier work
Excerpt: (§1) Supplement 41598_2023_39727_MOESM1_ESM.docx, table 2: Supplementary Table 2: Typical value (tv) and median parameter estimates and 95% confidence intervals of the semi-mechanistic model. | column: Typical value (tv) estimate; Median (Bootstrap) estimate

[2] = test system: E. coli N100; mcr-negative; conditions: cited from earlier work
Excerpt: as §1

[3] = test system: mcr-negative and mcr-positive E. coli isolates; conditions: cited from earlier work
Excerpt: as §1

[4] = test system: E. coli population; conditions: 75,000 IU/kg BW/day for 3-days; cited from earlier work
Excerpt: (§2) In this situation treatment is used to lower the number of resident E. coli in the gastrointestinal tract and control gut overgrowth, in a similar fashion to selective decontamination[37],[38]. As the outcome is not to achieve complete eradication (gut sterilisation), a lower effect than predicted by the PK/PD index critical value may be enough to reduce the bacterial burden within the gastrointestinal tract.

[5] = 75,000 IU/kg BW/day for 3-days; cited from earlier work
Excerpt: as §2

[6] = Colistin activity loss after centrifugation of medium (colispot microbiological assay); assay type: in vitro ADME; conditions: colispot method
[7] = test system: E. coli; conditions: ref EUCAST; cited from earlier work
Description: Colistin is used in chickens for the treatment and metaphylaxis (following confirmation of disease within the flock) of susceptible (ECOFF = 2 mg/L) gastro-intestinal non-invasive E. coli infections. The dose recommended for administration via drinking water is 75,000 IU of colistin (as sulphate) per kg body weight per day for 3–5 consecutive days in Europe. As colistin is not absorbed from the gastrointestinal tract, its effect is exerted locally within the intestinal lumen and the wall of the intestine. As such, there is an opportunity to develop a PK model to predict the gut concentration t ...

[8] = ref Bergen et al.[46], cited from earlier work
Description: For the bacteriological response, the cumulative area under the curve of the total bacterial count over 24 h (AUCbact24h) was used. Data were then log10 transformed for regression. As LOQ was set at 100 CFU/mL, it was considered that re-growth would not occur if the total bacterial population decreased to this value. PK/PD indices are conventionally determined using protein unbound (free; f) concentration. Bergen et al.[46] indicated practical equivalence of total and unbound colistin in CAMHB (unbound fractions of 0.96 and 0.95 at 10 and 30 mg/L respectively). Furthermore, as colistin binding ...

[9] = Colistin concentration in luminal intestinal (jejunum and ileum) content, UHPLC-MS/MS; assay type: in vivo, Ross 308 broiler chickens; conditions: Ross 308 broiler; for tissue level at time at 54 h: po, jejunum and ileum content, 4 birds per timepoint, read-out: Geometric mean colistin concentration in luminal intestinal content
Description: Pharmacokinetic data from in vivo clinical and supra-clinical doses via drinking water and oral gavage were collected as follows. Birds were provided a 14-h photoperiod aligned with onset of dosing (0 h) at 07:00. Birds were housed together upon arrival and separated at 13-days into the following dosing groups 75,000 IU/kg oral gavage (n = 17), 150,000 IU/kg oral gavage (n = 17), 75,000 IU/kg/day drinking water (n = 38), 100,000 IU/kg/day drinking water (n = 38), and 150,000 IU/kg/day drinking water (n = 38), the remaining birds constituted an untreated control group (n = 27) housed in another room. Colistin was administered as a single oral gavage via manual syringe directly into the crop, with the volume calculated based on bird weight immediately prior to dosing. For colistin administration via drinking water, dose was calculated based on average bird weight and water consumption measured the preceding day. It was refreshed every 24 h over the 3-day dosing. The “real” dose received every 24 h was back calculated based on measured water consumption for each dosing period.
For administration via drinking water, 4 birds were sampled at each of the following timepoints pre-dose (0 h), during-dose (12, 36 and 54 h) and post-dose (72, 75, 76, 78, 84 and 96 h). Following oral gavage, 2 birds were sampled at each of the following timepoints 0 h (pre-dose), 1 h, 3 h, 6 h, 12 h, and 24 h (post-dose). Birds were sacrificed through cervical dislocation. The whole small intestine was excised from the duodenum to the large intestine, including the caeca, using individually wrapped and sterilised sets of dissection apparatus were used to avoid cross-contamination between birds. The jejunum and ileum were resected (between proximal ligature after duodenum, and distal ligature before the large intestine) and luminal intestinal content (LIC) was collected as an homogenous sample extracted from the small intestine via peristaltic massage in a proximal-to-distal direction as previously described, with the jejunum/ileum representing the principle compartment for potentially pathogenic E. coli (as compared to the large intestine). All samples were stored at − 80 °C prior to further analysis for no-more than 3 months. Following a previously validated method, colistin was extracted from the matrix using solid-phase extraction with a methanol:water (1:2; v/v) solution. Polymyxin B1 was used as an internal standard. Colistin A and colistin B, (main components of colistin), were separated, detected and measured using ultra-high-performance liquid chromatography coupled with tandem mass spectrometry (UHPLC-MS/MS). Total colistin was calculated as the ratio of the sum of peak areas of colistin A and B over the polymyxin B1 peak area.

[10] = 1-compartment population intestinal PK model of colistin; assay type: in vivo, broiler chickens; conditions: for Amount of colistin base transit through the small intestine / Amount of colistin sulphate transit through the small intestine: Eq. (1)
Description: Colistin (converted in mg/kg BW) was deposited in a dosing compartment (crop), either as a single bolus input representing an oral-gavage administration or as a daily zero-order input lasting 24 h representing a continuous dose via drinking water. The colistin content pooled jejunum and ileum content (expressed as mg colistin/kg intestinal content) was assumed to be well mixed and was fitted with a one-compartment model. The model was parametrised with 3 parameters: “clearance” that is here an intestinal flow rate (expressed in kg intestinal content/kg BW h^−1), “volume of distribution”, expressed in kg intestinal content/kg BW) and absorption rate constant for extravascular administration (Ka expressed in h^−1).
Between subject variability (BSV) was applied to the clearance (Cl) described using an exponential model, as in the following general equation: Pi=tvP∗exp(ηPi) where tvP is the typical value of the parameter within the population and the random parameter ηPi (eta) represents the deviation from the typical value for the ith individual. Etas are assumed normally distributed with a mean of 0 and a variance of ω^2.
For model evaluation, a significant decrease (> 6.635 corresponding to p < 0.01 for one degree of freedom) in the Bayesian information criterion (BIC) as well as observation of observed vs. population, individual predicted concentrations plots, and visual predictive checks (VPC) were utilized. All concentrations lower than the LOQ of the bioanalytical method (1.1 mg/kg) were considered as censored and managed with the M3 approach and using the Laplace engine by Phoenix™ v8.3.0.5005 (Certara, St. Louis, Missouri). Residual variability was described with a multiplicative error model, providing optimal fit compared to additive or additive/multiplicative models. Residual variability was low due to the single random effect on the clearance considering only a single-point for each bird (due to the nature of the destructive sampling) and the near normal distribution of the Etas. The final population model was evaluated using a Visual Predictive Check (VPC; n = 300) that compares observed with predicted quantiles (10th, 50th and 90th percentiles).

[11] = targeted dose 100,000 IU/kg BW/day
[12] = targeted dose 150,000 IU/kg BW/day
[13] = typical value, 1-compartment intestinal PK model

CC[C@H](C)CCCCC(=O)N[C@@H](CCN)C(=O)N[C@H](C(=O)N[C@@H](CCN)C(=O)N[C@H]1CCNC(=O)[C@H]([C@@H](C)O)NC(=O)[C@H](CCN)NC(=O)[C@H](CCN)NC(=O)[C@H](CC(C)C)NC(=O)[C@@H](CC(C)C)NC(=O)[C@H](CCN)NC1=O)[C@@H](C)O [colistin, colistin sulphate] (X1-[Dab]T[Dab][Dab][Dab][dL]L[Dab][Dab]T; lactam 4-C)
F2 (potentiation factor for Kdrug on S1), typical value (tv) estimate ([1]; for mcr-positive isolates, calculated from covariate parameter): 3.76* scalar
Emax (S1), typical value (tv) estimate ([1]; mcr-positive isolates, Emax (S2) x F2): 10.13** h^-1
EC50_S1, typical value (tv) estimate ([1]; sub-population S1): 2.760 µg/mL
EC50_S2, typical value (tv) estimate ([1]; sub-population S2): 2.174 µg/mL
F2 (potentiation factor for Kdrug on S1), typical value (tv) estimate ([2]; for mcr-negative isolates): 12.66 scalar
Emax (S1), typical value (tv) estimate ([2]; negative mcr isolates, Emax (S2) x F2): 34.12** h^-1
EC50_S1, typical value (tv) estimate ([2]; sub-population S1, reproduced PD parameters): 0.083 µg/mL
EC50_S2, typical value (tv) estimate ([2]; sub-population S2): 0.115 µg/mL
Emax (S2), typical value (tv) estimate ([3]; both mcr-negative and mcr-positive isolates, maximal increase in kill effect): 2.69 h⁻¹
gamma_S1 (Hill coefficient), typical value (tv) estimate ([3]; sub-population S1): 4.09 scalar
gamma_S2 (Hill coefficient), median (bootstrap) estimate ([3]; sub-population S2): 3.80 scalar
gamma_S2 (Hill coefficient), typical value (tv) estimate ([3]; sub-population S2): 3.22 scalar
Reduction in the E. coli population [4]: ~1000 fold
Maximum intestinal concentrations [5]: greater than 5 mg/kg
Colistin activity loss following centrifugation ([6]; from CAMHB, E. coli ATCC 25922 bacterial lawn (microbiological assay, not LCMS)): 2%
Colistin activity loss following centrifugation ([6]; from IGM (intestinal growth medium), binding to particulate matter, E. coli ATCC 25922 bacterial lawn): 27%
ECOFF [7]: 2 mg/L
Unbound fraction of colistin ([8]; in CAMHB at 10 mg/L): 0.96
Unbound fraction of colistin ([8]; in CAMHB at 30 mg/L): 0.95
tissue level at time at 1 h ([9]; 75000 IU/kg, oral gavage 75,000 IU/kg, after 1 h, 2 birds per timepoint): 21200 ng/g
tissue level at time at 3 h ([9]; 150000 IU/kg, oral gavage 150,000 IU/kg, after 3 h, 2 birds per timepoint): 45600 ng/g
tissue level at time at 54 h ([9]; 75000 IU/kg/day, 75,000 IU/kg via drinking water): 4890 ng/g
tissue level at time at 54 h ([9]; 100000 IU/kg/day, 100,000 IU/kg via drinking water): 6660 ng/g
tissue level at time at 54 h ([9]; 150000 IU/kg/day, 150,000 IU/kg via drinking water): 8600 ng/g
Overall MTT in digestive tract (mean transit time crop to jejunum) ([10]; secondary parameter): 4.5 h
ka HL (entry rate half-life) ([10]; secondary parameter): 3.14 h
Amount of colistin base transit through the small intestine ([10]; targeted dose 75,000 IU/kg BW/day): 70,534 IU/kg BW/day
Amount of colistin base transit through the small intestine [10, 11]: 91,627 IU/kg BW/day
Amount of colistin sulphate transit through the small intestine [10, 11]: 3.05 mg/kg BW/day
Amount of colistin base transit through the small intestine [10, 12]: 139,935 IU/kg BW/day
Amount of colistin sulphate transit through the small intestine [10, 12]: 4.66 mg/kg BW/day
Cl (intestinal clearance), estimate (between subject variability %) [10, 13]: 29.1 (40.5%) g intestinal content/kg BW/h
V (intestinal volume of distribution) [10, 13]: 5.14 g intestinal content/kg BW
ka (entry rate constant from crop to jejunum) [10, 13]: 0.221 h⁻¹
